Source: patent US7109244B2, “Compositions and methods comprising long-chain, straight-chain 2-amino-3-hydroxyalkanes” (priority 1997, dated 2006)

Legend:
[1] = tested on: L1210 murine lymphocytic leukemia cells; test: L1210 morphological change (pointed cells); format: cell-based; conditions: for % Pointed cells: percent of the living cells; for % Pointed Cells 1st: 27 h
Method: Referring to FIG. 1, in the L1210 assay some of the cells changed from being spherical (FIG. 1A) to ovoid with long points approximately […] apart (FIG. 1B). Several other forms have also been observed in assays of these extracts, including cells with points not […] apart (FIG. 1C), cells with more than two points (FIG. 1D), cells with a bulge (FIG. 1E) and cells with a bulge replacing one of the points (FIG. 1F). However, the form with two sharp, opposing points was by far the predominant and characteristic one observed. This type of morphological change had not previously been observed during the screening of over 1000 marine extracts.
As discussed above, the spisulosines caused a distinct morphological change in L1210 leukemia cells, in addition to cytotoxicity. This bioactivity, which was recorded as the percentage of living cells in which altered morphology was observed, could be observed sometimes as early as 13 h after the start of the assay and reached a maximum at 50–60 h, after which it decreased. […] The morphological effect was usually measured 30–35 h after the start of the assay and again about 24 h later, while the cytotoxicity was determined when the number of cells in the controls reached approximately 8000, usually in 3 days after the assay was begun. It should be noted that the pointed cells were live cells and that they were counted as such for the cytotoxicity reading. Also, assays in which 100% cytotoxicity was recorded may still have contained live cells (<0.5%) which may or may not have been pointed. All morphologically-changed cells were counted in the pointed cell percentage.
Morphologically-changed cells (FIGS. 1A–1F) were counted as living cells when determining the percent inhibition of growth. Morphological changes were assessed throughout the assay period. The percentage of pointed cells was determined by counting the number of altered cells in approximately 60 living cells. This percentage varied with the length of time the assay had been running. It generally reached its maximum about 50 hours after the start of the assay, but pointed cells could be observed as early as 13 hours after the start of the assay and could usually still be seen when the percent growth inhibition was measured. The percentages of pointed cells were often counted both after about 35 and after 55 hours. The time that this measurement was made is indicated with the data.

P-388 = test: in vitro tumor cell line activity, P-388; format: cell-based
A-549 = test: in vitro tumor cell line activity, A-549; format: cell-based
[2] = tested on: human renal cancer (MRI-H-121); test: xenograft model of human renal cancer; format: in vivo; conditions: for % T/C / Comments: intraperitoneal
Method: Spisulosine 285 was tested in in vivo studies against xenograft models of human prostate cancer (PC-3) and human renal cancer (MRI-H-121). These models use subcutaneously implanted solid human tumors that grow and increase in volume over time. The mean volume of tumor growth in control animals provides the basis for comparison. […] A level of activity that is less than 40% T/C is considered statistically significant. The doses of spisulosine used were given at the maximum tolerated, non lethal dose (MTD), ½ MTD and ¼ MTD. Delivery of the drug was by the intraperitoneal route.

PANC-1 = test: expanded in vitro screen, PANC-1; format: cell-based; conditions: Homo sapiens; PANC-1, Pancreas, solid
Method: (§1) An expanded in vitro screen was performed of spisulosine 285 against a series of different cell lines.

HT-29 = test: expanded in vitro screen, HT-29; format: cell-based; conditions: Homo sapiens; HT-29, Colon, solid
Method: as §1

786-0 = test: expanded in vitro screen, 786-0; format: cell-based; conditions: Homo sapiens; 786-0, Renal, solid
Method: as §1

MX-1 = test: expanded in vitro screen, MX-1; format: cell-based; conditions: Homo sapiens, MX1; MX-1, Mammary, solid
Method: as §1

SW684 = test: expanded in vitro screen, SW684; format: cell-based; conditions: Homo sapiens; SW684, Fibrosarcoma
Method: as §1

U-937 = test: expanded in vitro screen, U-937; format: cell-based; conditions: Homo sapiens; U-937, Lymphoma
Method: as §1

H9 = test: expanded in vitro screen, H9; format: cell-based; conditions: Homo sapiens; H9, Lymphoma
Method: as §1

ARH77 = test: expanded in vitro screen, ARH77; format: cell-based; conditions: Homo sapiens, ARH-77; ARH77, Leukemia
Method: as §1

CCRF-SB = test: expanded in vitro screen, CCRF-SB; format: cell-based; conditions: Homo sapiens, Leukemia
Method: as §1

IC50 (PANC-1): 1.71 pM | IC50 (HT-29): 2.56 pM | IC50 (786-0): 2.75 pM | IC50 (MX-1): 38.9 pM | IC50 (SW684): 1050 pM | IC50 (U-937): 19.6 pM | IC50 (H9): 31 pM | IC50 (ARH77): 13.6 pM | IC50 (CCRF-SB): 1050 pM
Compound: CCCCCCCCCCCCCCC[C@@H](O)[C@H](C)N [Spisulosine 285, (2S,3R)-2-Amino-3-octadecanol]
L1210 morphological alteration / pointed cell activity (in words) [1]: pointed cell activity | % Pointed cells ([1]; 0.01 μg/ml): 1% | % Pointed cells ([1]; 0.05 μg/ml): 71% | % Pointed Cells 1st ([1]; 0.1 μg/ml): 33% | % Pointed cells ([1]; 0.1 μg/ml): 62% | % Pointed Cells 1st ([1]; 0.5 μg/ml): 56% | % Pointed cells ([1]; 0.5 μg/ml): 97% | % Pointed Cells 1st ([1]; 1 μg/ml): 64% | % Pointed Cells 1st ([1]; 5 μg/ml): ad | active against tumor cell line in vitro (concentration) (P-388): 0.01 mg/mL | active against tumor cell line in vitro (concentration) (A-549): 0.05 mg/mL | effect on tumour growth (in words) ([2]; effects continuing up to a few weeks after the last dose): reduces the growth of the human renal cancer | % T/C ([2]; total dose 2.499 mg/kg, day 15): 43% | % T/C ([2]; total dose 5.010 mg/kg, day 11): 35% | Comments ([2]; total dose 5.010 mg/kg, day 11): inhibition (partial | % T/C ([2]; total dose 9.990 mg/kg, day 11): 28% | Comments ([2]; total dose 9.990 mg/kg, day 11): inhibition (partial
